Test results taken from patent publication US10765661B2, “Method for improving feed digestibility and growth performance” (DSM IP ASSETS B.V., priority 2015, dated 2020).
Read-outs that look alike come from different tables or passages of the source. Marks after values point to notes of the source that are not given here.

Tests used:
[1] = system: Male broiler (Ross 308) chicks; type: in vivo; conditions: main effect mean (factor: Yes)
Text: The proteolytic enzyme (Ronozyme®ProAct) and Vitamin C (Staye®50) were provided in powder form and a ready to use formulation by DSM Nutritional Products.
Male broiler (Ross 308) chicks were obtained from a local hatchery as day-olds and reared in cage in an environmentally controlled room. On d 0, chicks were individually weighed and 640 birds were allocated on weight basis to 80 cages (8 chicks per cage). The 8 dietary treatments (Table 1) were then randomly assigned to 10 replicate cages each. Experimental diets were fed from 0-21 and 22-35 days.
During week 1, a broiler coccidiosis vaccine (Immucox, Pacificvet, Christchurch, New Zealand) was given via drinking water to all chicks.
The birds received 20-hours of fluorescent illumination and allowed free access to the diets and water. Birds were checked at least three times daily (9.00 am, […]) and any unusual aspect of bird behaviour or condition was recorded. Sick or injured animals were weighed and removed from the study.
The experimental design is a 2×2×2 factorial arrangement of treatments, with two basal control diets (positive control and negative control), two levels of enzyme (with and without) and two levels of vitamin C (with and without).
The two control diets, positive and negative, based on wheat and soybean meal, were mixed for each phase of the study (0-21 and 22-35 d) (Table 2). The PC and NC diets were then used to develop 8 dietary treatments by adding the ProAct enzyme and Vitamin C mixtures. All the diets were fed in pellet form.
Growth performance: Feed and water were available ad libitum during the 35 days experimental period. Body weights and feed intake were recorded on days 7, 14, 21, 28 and 35. Mortality was recorded daily. Feed per gain values were corrected for the body weight of any bird that died or culled during the course of the experiment.
The data were subjected to ANOVA using the General Linear Models procedure of SAS (2004). Significant differences were considered at P<0.05. When a significant F-test was detected, means were separated using the least significant difference test.

Ross 308 male broilers = assay: Growth performance of broiler chickens fed two proteolytic enzymes supplemented with vitamin C (Example 3); type: in vivo; conditions: for FCR / FI / WG: NC diet, Vit. C level 300 mg/kg, alone or with the named enzyme (CIBENZA 350 mg/kg, ProAct 200 mg/kg feed)
Protocol: A total of 490 day old Ross 308 male broilers were randomly assigned to 7 treatments (6 experimental groups plus one control group) with 10 replicates of 7 birds per replicate. Six experimental groups with two levels of vitamin C (0 and 300 mg/kg feed) and three enzyme treatments: • no feed enzymes, • Novus CIBENZA (Bacillus licheniformis PWD-1 at levels of 350 mg/kg feed), • DSM RONOZYME® ProAct (at levels of 200 mg/kg feed), in a 2×3 factorial design plus one positive control. The diets of the positive control (PC) were based on wheat and soybean meal and were adequate in all nutrients. The other 6 experimental groups were fed with a negative control (NC) diet based also on wheat and soybean meal but containing less protein (97.5%) and digestible amino acids (95.5%) than the PC. The birds were fed starter (1-14 d) diets during the trial.
The birds were fed the starter (1-14 d) diets ad libitum and had free access to water throughout the trial. RONOZYME® NP (CT) and RONOZYME® WX at levels of 200 and 100 mg/kg feed respectively were included in each diet. […] After mixing, the feed was pelleted at 75-80° C.
All birds were reared in cages in an environmentally controlled room and received 23L:1D of lighting regime during the first week and 20L:4D afterward until the end of the trial. The temperature of the room was maintained at 32±1° C. on the day of arrival and adapted according to the age specific requirements of the chickens.
At d 4, a broiler coccidiosis vaccine (Coccivac B®, MSD, Canada) was given as a mild challenge to all birds via oral administration. Body weights and feed intake were recorded at weekly intervals. Mortality was recorded daily. The weight of the dead animals was used to adjust the feed conversion ratio (FCR) which were calculated by dividing total feed intake by weight gain of live plus weight of dead birds per cage, respectively.

[2] = 1-7 d, main effect mean of the 2x3 factorial (NC diet)
[3] = 1-14 d, main effect mean of the 2x3 factorial (NC diet)

For `O=C1O[C@H]([C@@H](O)CO)C(O)=C1O` [Vitamin C, L-ascorbic acid], the “Feed intake, main effect” value ([1]; 1-21 d post-hatching) was 1437 g/bird, the “Feed/gain, main effect” value ([1]; 1-21 d post-hatching) was 1.43 g/g and the “Weight gain, main effect” value ([1]; 1-21 d post-hatching) was 1006 g/bird. For the same molecule, the “Feed intake, main effect” value ([1]; 1-35 d post-hatching) was 3809 g/bird, the “Feed/gain, main effect” value ([1]; 1-35 d post-hatching) was 1.64 g/g and the “Weight gain, main effect” value ([1]; 1-35 d post-hatching) was 2349 g/bird. It also gave an FCR (Ross 308 male broilers; 1-7 d) of 1.141, an FI (Ross 308 male broilers; 1-7 d) of 157 g/bird and a WG (Ross 308 male broilers; 1-7 d) of 137 g/bird. The “FCR, main effect” value (Ross 308 male broilers; [2]) was 1.156, the “FI, main effect” value (Ross 308 male broilers; [2]) was 161 g/bird and the “WG, main effect” value (Ross 308 male broilers; [2]) was 140 g/bird. For the same molecule, the “FCR, main effect” value (Ross 308 male broilers; 1-7 d, main effect mean of the 2x3 factorial (NC diet), listed as Vit. C) was 1.156^A, the FCR (Ross 308 male broilers; 1-14 d) was 1.354^a and the FI (Ross 308 male broilers; 1-14 d) was 602 g/bird. For the same molecule, the WG (Ross 308 male broilers; 1-14 d) was 445 g/bird, the “FCR, main effect” value (Ross 308 male broilers; [3]) was 1.440 and the “FI, main effect” value (Ross 308 male broilers; [3]) was 635 g/bird. The “WG, main effect” value (Ross 308 male broilers; [3]) was 443 g/bird, the “FCR, main effect” value (Ross 308 male broilers; 1-14 d, main effect mean of the 2x3 factorial (NC diet), listed as Vit. C) was 1.440^A and the “FCR, main effect” value (Ross 308 male broilers; d 1 to d 21, birds fed vitamin C vs. 1.516 without, P=0.080) was 1.478.
